# In US10117948B2, “Selective arylation of dichalcogenides in biomolecules” (priority 2015, dated 2018):
# Columns and labels:
# [1] = cited from earlier work
# [2] = system: BT-474 cells (mammary gland cancer cells); experiment: Screening of genistein antibody-drug conjugate against BT-474 cells; assay type: cell-based; conditions: tested as ADC of genistein
# Description: An antibody-drug conjugate (ADC) of genistein was screened against BT-474 cells (mammary gland cancer cells).
# [3] = system: gram-positive bacteria and gram-negative bacteria; conditions: due to the outer cell membrane; cited from earlier work
# [4] = system: A. baumannii Wild-type (MMX 1630, ATCC 19606); experiment: MIC screening, vancomycin vs vancomycin/peptide conjugates; assay type: cell-based; conditions: Acinetobacter baumannii, ATCC19606
# Description: (§1) Vancomycin was conjugated to a variety of antibacterial peptides and screened against (a) resistant strains of gram-positive bacteria and b) gram-negative bacteria. See FIG. 20, FIG. 21, FIG. 22, and Table 3.
# [5] = system: K. pneumoniea KPC-1 (MMX 6902, ATCC BAA-1705); experiment: as above; assay type: cell-based
# Description: as §1
# [6] = system: E. faecalis VRE (Van B) (MMX 202, ATCC 51299); experiment: as above; assay type: cell-based; conditions: Enterococcus faecalis
# Description: as §1
# [7] = system: E. faecalis VRE (Van A) (MMX 486); experiment: as above; assay type: cell-based; conditions: Enterococcus faecalis
# Description: as §1
# [8] = system: K. pneumoniea PSSP (MMX 1195, ATCC 49619); experiment: as above; assay type: cell-based
# Description: as §1
# [9] = system: E. faecalis VSE: QC (MMX 101, ATCC 29212); experiment: as above; assay type: cell-based; conditions: Enterococcus faecalis, ATCC29212
# Description: as §1
SMILES,pKa [1],toxicity to cells [2],activity against gram-negative bacteria [3],MIC [4] [µg/mL],MIC [5] [µg/mL],MIC [6] [µg/mL],MIC [7] [µg/mL],MIC [8] [µg/mL],MIC [9] [µg/mL]
N[C@@H](CS)C(=O)O [cysteine],8.14,,,,,,,,
N[C@@H](C[SeH])C(=O)O [selenocysteine],5.47,not toxic to cells,,,,,,,
CN[C@H](CC(C)C)C(=O)N[C@H]1C(=O)N[C@@H](CC(N)=O)C(=O)N[C@H]2C(=O)N[C@H]3C(=O)N[C@H](C(=O)N[C@H](C(=O)O)c4cc(O)cc(O)c4-c4cc3ccc4O)[C@H](O)c3ccc(c(Cl)c3)Oc3cc2cc(c3O[C@@H]2O[C@H](CO)[C@@H](O)[C@H](O)[C@H]2O[C@H]2C[C@](C)(N)[C@H](O)[C@H](C)O2)Oc2ccc(cc2Cl)[C@H]1O [vancomycin],,,not active,> 64,> 64,16,> 64,0.25,4
